Measurements reported in ChEMBL document CHEMBL1133731, “Novel potent ligands for the central nicotinic acetylcholine receptor: synthesis, receptor binding, and 3D-QSAR analysis” (J Med Chem, 2000).
pIC50: −log10 of the molar value.

Experiments:
[1] = molecular target: T1, Neuronal acetylcholine receptor; alpha4/beta2 (Rattus norvegicus, UniProt P09483+P12390); test: In vitro binding affinity for Nicotinic acetylcholine receptor alpha4-beta2 in rat cerebral cortical membrane using [3H]cytisine as radioligand; type: cell membranes
[2] = molecular target: T1, Neuronal acetylcholine receptor; alpha4/beta2; test: In vitro binding affinity for Nicotinic acetylcholine receptor alpha4-beta2 (alpha4 beta-2 subtype of nAChRs) in rat cerebral cortical membrane using [3H]-cytisine as radioligand; type: cell membranes

T1 sequence (P09483 whole entry): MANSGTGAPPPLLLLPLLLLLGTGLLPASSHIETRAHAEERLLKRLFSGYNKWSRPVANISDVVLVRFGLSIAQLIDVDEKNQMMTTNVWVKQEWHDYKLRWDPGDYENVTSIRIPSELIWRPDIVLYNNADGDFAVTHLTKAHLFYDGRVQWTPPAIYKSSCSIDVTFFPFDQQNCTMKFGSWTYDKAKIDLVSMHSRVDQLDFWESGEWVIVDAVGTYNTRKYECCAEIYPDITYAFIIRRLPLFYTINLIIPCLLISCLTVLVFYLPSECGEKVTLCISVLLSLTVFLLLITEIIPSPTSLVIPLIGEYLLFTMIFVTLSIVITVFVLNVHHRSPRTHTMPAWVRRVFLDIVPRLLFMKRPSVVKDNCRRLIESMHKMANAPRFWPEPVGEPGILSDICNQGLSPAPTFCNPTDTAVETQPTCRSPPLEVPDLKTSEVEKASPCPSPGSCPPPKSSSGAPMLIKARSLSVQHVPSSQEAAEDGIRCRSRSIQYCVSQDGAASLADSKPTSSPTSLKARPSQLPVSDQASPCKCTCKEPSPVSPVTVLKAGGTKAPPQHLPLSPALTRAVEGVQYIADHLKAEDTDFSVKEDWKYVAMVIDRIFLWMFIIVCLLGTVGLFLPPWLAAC
T1 sequence (P12390 whole entry): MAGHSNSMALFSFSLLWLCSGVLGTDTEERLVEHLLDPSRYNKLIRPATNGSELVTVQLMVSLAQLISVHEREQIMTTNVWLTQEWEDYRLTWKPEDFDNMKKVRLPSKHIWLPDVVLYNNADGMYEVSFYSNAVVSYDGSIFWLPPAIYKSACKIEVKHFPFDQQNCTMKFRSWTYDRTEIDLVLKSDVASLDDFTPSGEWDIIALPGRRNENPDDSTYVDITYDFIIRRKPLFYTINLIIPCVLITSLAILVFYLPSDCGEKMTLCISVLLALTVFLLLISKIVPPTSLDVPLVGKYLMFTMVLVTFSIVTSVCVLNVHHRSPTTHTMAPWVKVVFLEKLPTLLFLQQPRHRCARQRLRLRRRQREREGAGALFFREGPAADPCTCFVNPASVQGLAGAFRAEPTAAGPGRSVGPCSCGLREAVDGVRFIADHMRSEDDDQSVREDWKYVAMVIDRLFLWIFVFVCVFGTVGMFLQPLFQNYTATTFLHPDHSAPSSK

Compound	pIC50 ([1]; read-out: IC50)	also measured
c1cncc(-c2cncc(N3CCCNCC3)c2)c1	8.55	–
CC(C)COc1cncc(N2CCCNCC2)c1	8.66	–
COc1ccc(N2CCCNCC2)cn1	6.77	–
CCOc1cc(N2CCCNCC2)cnc1Br	–	pIC50 [2]: 9.06
CCSc1ccc(N2CCCNCC2)cn1	6.77	–
OCCOc1cncc(N2CCCNCC2)c1	8.74	–
c1cncc(OC2CCCNC2)c1 (configuration not stated)	6.72	–
Clc1cncc(OC2CCNC2)c1 (configuration not stated)	6.66	–
c1ccc(Sc2cncc(N3CCCNCC3)c2)cc1	8.40	–
COc1cc(N2CCCNCC2)cnc1Cl	–	pIC50 [2]: 9.17
Oc1cncc(N2CCCNCC2)c1	8.62	–
C1=C(c2cccnc2)CC2CCC1N2 (configuration not stated)	8.17	–
COc1cc(N2CCCNCC2)cnc1OC	6.77	–
NC(=O)c1cncc(N2CCCNCC2)c1	7.70	–
c1cncc(OC[C@@H]2CCN2)c1	–	pIC50 [1]: 8.82
c1ccc2nc(-c3cncc(N4CCCNCC4)c3)ccc2c1	8.18	–
C=COc1cncc(N2CCCNCC2)c1	–	pIC50 [2]: 8.30
Nc1cccc(-c2cncc(N3CCCNCC3)c2)c1	8.40	–
c1cncc(OC2CCNC2)c1 (configuration not stated)	7.00	–
COc1cncc(N2CCCNCC2)c1	8.72	–
COCCOc1cncc(N2CCCNCC2)c1	8.62	–
C1=CC(CSc2cncc(N3CCCNCC3)c2)C=C1	8.10	–
